The source of these data is US20260226048A1, “MULTI-CYCLIC IRAK AND FLT3 INHIBITING COMPOUNDS AND USES THEREOF” (CHILDREN'S HOSPITAL MEDICAL CENTER, priority 2023, published 2026).

Structures are written as SMILES. pKd: −log10 of the molar value.

The target of one assay is T1, FLT3 N841I (Homo sapiens, UniProt P36888, N841I).
T1 construct: purchased DiscoverX (KINOMEscan); host or cells: E. coli BL21-derived host (T7 phage) or HEK-293
T1 sequence (P36888 27-993 N841I): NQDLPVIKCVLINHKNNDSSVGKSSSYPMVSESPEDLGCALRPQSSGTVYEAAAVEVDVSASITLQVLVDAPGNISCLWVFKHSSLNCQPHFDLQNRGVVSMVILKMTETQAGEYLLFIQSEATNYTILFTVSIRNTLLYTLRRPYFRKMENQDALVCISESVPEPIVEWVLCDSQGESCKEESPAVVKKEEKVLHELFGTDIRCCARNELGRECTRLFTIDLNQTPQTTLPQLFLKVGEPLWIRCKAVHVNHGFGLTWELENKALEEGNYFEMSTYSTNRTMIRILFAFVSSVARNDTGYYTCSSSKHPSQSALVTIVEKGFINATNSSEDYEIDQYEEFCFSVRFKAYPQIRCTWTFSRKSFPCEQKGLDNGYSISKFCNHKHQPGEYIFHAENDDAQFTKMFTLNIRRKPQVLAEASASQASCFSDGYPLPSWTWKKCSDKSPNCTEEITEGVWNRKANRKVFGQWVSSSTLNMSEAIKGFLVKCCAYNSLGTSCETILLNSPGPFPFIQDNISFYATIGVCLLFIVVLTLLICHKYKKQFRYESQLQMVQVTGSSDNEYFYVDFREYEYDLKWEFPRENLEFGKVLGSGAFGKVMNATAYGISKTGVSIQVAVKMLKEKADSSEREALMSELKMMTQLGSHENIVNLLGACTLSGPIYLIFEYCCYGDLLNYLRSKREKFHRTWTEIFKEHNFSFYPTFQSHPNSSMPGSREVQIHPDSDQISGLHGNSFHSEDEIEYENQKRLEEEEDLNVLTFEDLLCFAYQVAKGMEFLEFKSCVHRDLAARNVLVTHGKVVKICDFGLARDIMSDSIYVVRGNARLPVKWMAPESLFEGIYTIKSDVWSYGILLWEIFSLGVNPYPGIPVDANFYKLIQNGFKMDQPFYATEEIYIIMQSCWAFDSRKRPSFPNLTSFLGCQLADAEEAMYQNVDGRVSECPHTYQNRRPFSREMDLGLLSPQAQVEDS
Nature of the assay: DiscoverX KINOMEscan competition binding assay, FLT3 N841I. Particulars: 11-point 3-fold dilution. From the text: (§1) […]. […] As a result, the data report thermodynamic interaction affinities (Kd values), rather than IC50 values that are dependent on ATP concentrations. The assay uses a DNA-tagged version of the protein kinase, and an immobilized ligand bound to a solid support. Compounds that directly or indirectly prevent kinase binding to the immobilized ligand reduce the amount of kinase captured on the solid support, which is detected using an ultra-sensitive qPCR method. Affinity constants reported from the assay have been reported to be independent of the immobilized ligand used that is coupled to the solid support (See supplemental information in Fabian, M. A. et. al., (2005) Nat. Biotechnol. 23, 329-336; Wodicka, L. M. et. al., (2010) Chem. Biol. 17, 1241-1249.)
(§2) Kinase-tagged T7 phage strains were prepared in an E. coli host derived from the BL21 strain. E. coli were grown to log-phase and infected with T7 phage and incubated with shaking at 32° C. until lysis. The lysates were centrifuged and filtered to remove cell debris. The remaining kinases were produced in HEK-293 cells and subsequently tagged with DNA for qPCR detection. Streptavidin-coated magnetic beads were treated with biotinylated small molecule ligands for 30 minutes at room temperature to generate affinity resins for kinase assays. The liganded beads were blocked with excess biotin and washed with blocking buffer (SeaBlock (Pierce), 1% BSA, 0.05% Tween 20, 1 mM DTT) to remove unbound ligand and to reduce non-specific binding. […] Test compounds were prepared as 111× stocks in 100% DMSO. Kds were determined using an 11-point 3-fold compound dilution series with three DMSO control points. All compounds for Kd measurements are distributed by acoustic transfer (non-contact dispensing) in 100% DMSO. The compounds were then diluted directly into the assays such that the final concentration of DMSO was 0.9%. All reactions were performed in polypropylene 384-well plates. Each was a final volume of 0.02 mL. […] The kinase concentration in the eluates was measured by qPCR.
(§3) Binding constants (Kds) were calculated with a standard dose-response curve using the Hill equation. The Hill Slope was set to −1. Curves were fitted using a non-linear least square fit with the Levenberg-Marquardt algorithm.

In a further assay the target is T2, FLT3 ITD, D835V (Homo sapiens, UniProt P36888, D835V, form not given).
T2 construct: fused on or other part: DNA tag for qPCR detection (kinase-tagged T7 phage, or made in HEK-293 cells and then tagged with DNA)
T2 sequence (P36888 1-993 D835V): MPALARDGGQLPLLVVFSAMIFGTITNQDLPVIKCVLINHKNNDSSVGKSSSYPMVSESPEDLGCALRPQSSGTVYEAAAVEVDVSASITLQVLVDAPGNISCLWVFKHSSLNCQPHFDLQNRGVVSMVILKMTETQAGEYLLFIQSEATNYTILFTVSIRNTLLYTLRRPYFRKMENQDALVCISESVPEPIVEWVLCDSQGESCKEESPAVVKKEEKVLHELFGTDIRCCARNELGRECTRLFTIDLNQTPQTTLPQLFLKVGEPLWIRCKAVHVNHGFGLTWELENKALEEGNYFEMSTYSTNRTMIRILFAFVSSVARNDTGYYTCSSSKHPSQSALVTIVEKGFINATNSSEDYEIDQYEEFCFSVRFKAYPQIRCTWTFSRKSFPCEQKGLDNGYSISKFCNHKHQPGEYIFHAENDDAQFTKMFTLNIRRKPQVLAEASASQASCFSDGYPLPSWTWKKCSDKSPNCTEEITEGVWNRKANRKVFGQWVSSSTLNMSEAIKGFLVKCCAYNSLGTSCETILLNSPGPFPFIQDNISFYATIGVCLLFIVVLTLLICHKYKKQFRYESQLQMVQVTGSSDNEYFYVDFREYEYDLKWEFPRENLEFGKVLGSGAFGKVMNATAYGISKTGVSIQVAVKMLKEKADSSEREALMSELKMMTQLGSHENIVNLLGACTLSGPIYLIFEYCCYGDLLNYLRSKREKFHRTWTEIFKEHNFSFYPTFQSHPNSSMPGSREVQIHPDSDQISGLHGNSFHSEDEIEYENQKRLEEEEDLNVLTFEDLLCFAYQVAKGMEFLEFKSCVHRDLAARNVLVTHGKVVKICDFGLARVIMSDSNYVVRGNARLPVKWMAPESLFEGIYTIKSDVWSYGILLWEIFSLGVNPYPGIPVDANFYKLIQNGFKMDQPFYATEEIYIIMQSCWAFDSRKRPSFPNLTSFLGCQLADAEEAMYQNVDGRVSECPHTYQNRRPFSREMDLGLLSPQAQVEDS
The experiment in a line: DiscoverX KINOMEscan competition binding assay, FLT3 ITD, D835V. As to conditions: 11-point 3-fold dilution.
Text: as §1, §2, §3

With `COc1cc2ncc(-c3nc(N[C@H]4CNCC[C@@H]4F)ncc3F)n2nc1C1CC1` [Compound 1a, 4-(6-cyclopropyl-7-methoxyimidazo[1,2-b]pyridazin-3-yl)-5-fluoro-N-((3S,4S)-4-fluoropiperidin-3-yl)pyrimidin-2-amine], the pKd on FLT3 N841I is > 9.77; at FLT3 ITD, D835V, > 9.77.
Consider `FC(F)COc1cc2ncc(-c3ccnc(N[C@H]4CNCC[C@@H]4F)n3)n2nc1C1CC1` [Compound 4a, 4-(6-cyclopropyl-7-(2,2-difluoroethoxy)imidazo[1,2-b]pyridazin-3-yl)-N-((3 S,4S)-4-fluoropiperidin-3-yl)pyrimidin-2-amine], for which the pKd on FLT3 N841I was 9.06; on FLT3 ITD, D835V, > 9.77.
Turning to `COc1cc2ncc(-c3nc(N[C@H]4CNCC[C@@H]4F)ncc3F)n2nc1C(C)(C)O` [Compound 45a, 2-(3-(5-fluoro-2-(((3S,4S)-4-fluoropiperidin-3-yl)amino)pyrimidin-4-yl)-7-methoxyimidazo[1,2-b]pyridazin-6-yl)propan-2-ol], the pKd on FLT3 N841I is 8.96; at FLT3 ITD, D835V it was 9.64.
The like results for `CC(C)(O)c1ccc2ncc(-c3nc(N[C@H]4CNCC[C@@H]4F)ncc3F)n2c1` [Compound 46a, 2-(3-(5-fluoro-2-(((3S,4S)-4-fluoropiperidin-3-yl)amino)pyrimidin-4-yl)imidazo[1,2-a]pyridin-6-yl)propan-2-ol] were, in that order, 8.49 and > 9.77.
As for `COc1cc2ncc(-c3nc(N[C@H]4CNCC[C@@H]4F)ncc3F)n2nc1C1COC1` [Compound 92a, 5-fluoro-N-((3S,4S)-4-fluoropiperidin-3-yl)-4-(7-methoxy-6-(oxetan-3-yl)imidazo[1,2-b]pyridazin-3-yl)pyrimidin-2-amine], the pKd was 9.74 on FLT3 N841I and > 9.77 at FLT3 ITD, D835V.
For `CC(C)(O)c1cn2c(-c3nc(N[C@H]4CNCC[C@@H]4F)ncc3F)cnc2cn1` [Compound 100a, 2-(3-(5-fluoro-2-(((3S,4S)-4-fluoropiperidin-3-yl)amino)pyrimidin-4-yl)imidazo[1,2-a]pyrazin-6-yl)propan-2-ol] the same measures were 7.80 and 9.72.
Turning to `COc1cc2ncc(-c3nc(N[C@H]4CNCC[C@@H]4F)ncc3F)n2nc1N1CCCS1(=O)=O` [Compound 112a, 2-(3-(5-fluoro-2-(((3S,4S)-4-fluoropiperidin-3-yl)amino)pyrimidin-4-yl)-7-methoxyimidazo[1,2-b]pyridazin-6-yl)isothiazolidine 1,1-dioxide], the pKd on FLT3 N841I is 9.70; at FLT3 ITD, D835V, > 9.77.

As usually defined, the pKd is the negative decadic logarithm of the Kd, by convention in mol/L. A higher pKd goes with a low Kd.
